Data: patent US20260207450A1, “ANTI-DANDRUFF COMPOSITIONS” (Firmenich SA, priority 2022, published 2026)
Where two headings read alike, the source gives them in different places.

Assays:
M. restricta = test: Disc-diffusion assay, additional perfumery materials in DMSO, M. restricta, 4 days; assay type: cell-based, Malassezia restricta; conditions: for zone of inhibition: in DMSO (1% or 2%, not specified per value)
Procedure: (§1) Anti-Malassezia effect of additional perfumery materials in DMSO was determined using disc-diffusion assay as described previously. Test samples solutions were prepared in DMSO to final concentrations of 0.5%, 1% or 2%. Discs (Whatman, 6 mm in diameter) were placed on inoculated agar plates. Aliquots (20 μL) of each sample solution was added to each disc. Agar plates were incubated at 30° C. for 4 days. After incubation, diameters of the clear inhibition zones around the discs were recorded
as §1, with “above.” for “previously.”, “recorded.” for “recorded”
Anti-Malassezia effect of additional perfumery materials in solvent in DMSO was determined using disc-diffusion assay, as described previously. Test samples solutions are prepared in DMSO to final concentrations of 0.5%. Discs (Whatman, 6 mm in diameter) were placed on inoculated agar plates. Aliquots (20 μL) of each sample solution was added to each disc. Agar plates were incubated at 30° C. for 4 days. After incubation, diameters of the clear inhibition zones around the discs were measured.

[1] = system: M. restricta ATCC MYA-4611; test: Disc-diffusion assay, perfumery materials in DMSO, M. restricta; assay type: cell-based, Malassezia restricta; conditions: Malassezia restricta, 144 h
Procedure: Anti-Malassezia effect of perfumery materials in solvent in DMSO was determined using disc-diffusion assay, based on the method of J Mycol Infect 2018: 23: 91-98. In brief, working cultures of Malassezia strains were prepared from −80 C stock culture on mDixon agar plate (for M. furfur DSM 6170) or mLN agar plate (for M. restricta ATCC MYA-4611 and M. globosa ATCC MYA-4612), and cells were suspended in 0.9% saline, and spread onto mDixon or mLN agar surface to prepare lawn plate. Test samples solutions are prepared in DMSO to final concentrations of 0.2%, 1% or 2%. Discs (Whatman, 6 mm in diameter) were placed on inoculated agar plates with each Malassezia strains respectively, including M. furfur DSM 6170, M. restricta ATCC MYA-4611, and M. globosa ATCC MYA-4612. Aliquots (20 μL) of each sample solution was added to each disc. Agar plates were incubated at 30° C. for 3 days for M. furfur DSM 6170, and 6 days for M. restricta ATCC MYA-4611, and M. globosa ATCC MYA-4612. After incubation, diameters of the clear inhibition zones around the discs were measured. Inhibition zone greater than 6 mm are regarded as having anti-Malassezia effect.

[2] = Malassezia restricta, 96 h, Table 19, M. restricta, 4 days, read-out: Inhibition zone diameter (mm)
[3] = Malassezia restricta, 96 h, Table 20, 0.5% in DMSO, 4 days, read-out: Inhibition zone diameter (mm) on M. restricta

Work on CC/C=C\CCCCO [(Z)-5-octen-1-ol] yielded a zone of inhibition (M. restricta; [2]) of 7.3 mm.

Compound CNc1ccccc1C(=O)OC [methyl 2-(methylamino)benzoate] has a zone of inhibition at 0.5 % (M. restricta; [3]) of 7.4 mm.

CCCCCC/C=C/CO [(E)-2-nonen-1-ol] showed a zone of inhibition (M. restricta; [2]) of 7.5 mm.

With COC(OC)C(C)(C)CC=C(C)C [6,6-dimethoxy-2,5,5-trimethyl-2-hexene] the zone of inhibition at 0.5 % (M. restricta; [3]) was 7.2 mm.

With CCCCCCC/C=C\CCC=O [(4Z)-4-dodecenal] the zone of inhibition (M. restricta; [2]) was 7.4 mm.

For CC1(C)CC=C(CCC=O)CC1 [3-(4,4-dimethyl-1-cyclohexen-1-yl)propanal], the zone of inhibition at 0.5 % (M. restricta; [3]) was 8.9 mm.

Cc1ccc(CC=O)cc1 [(4-methylphenyl)acetaldehyde] gave a zone of inhibition at 0.5 % (M. restricta; [3]) of 10.6 mm.

CCCCC/C=C/CCC=O [(4E)-4-decenal] gave a zone of inhibition at 0.5 % (M. restricta; [3]) of 7.2 mm.

With “(1RS,2RS)-2,4-dimethyl-3-cyclohexene-1-carbaldehyde + (1RS,2SR)-2,4-dimethyl-3-cyclohexene-1-carbaldehyde” the “Inhibition zone diameter (mm) on M. restricta” value (M. restricta; Table 20, 0.5% in DMSO, 4 days) was 8.0 mm.

C/C(=C\c1ccc(C)cc1)CC(C)C=O (racemic) [(+/−)-(4E)-2,4-dimethyl-5-(4-methylphenyl)-4-pentenal] gave a zone of inhibition at 0.5 % (M. restricta; Malassezia restricta, 96 h, read-out: Inhibition zone diameter (mm)) of 7.8 mm.

In the case of CCC(=CCC1CC=C(C)C1(C)C)CO (racemic) [(+/−)-2-ethyl-4-(2,2,3-trimethyl-3-cyclopenten-1-yl)-2-buten-1-ol], the zone of inhibition at 0.5 % (M. restricta; [3]) is reported as 7 mm.

CC/C=C\CCCCC=O [(Z)-6-nonenal] gave a zone of inhibition at 0.5 % (M. restricta; [3]) of 7.2 mm.

CC(C)=CCC[C@@H](C)CC=O [(+)-(R)-3,7-dimethyl-6-octenal] showed a zone of inhibition at 0.5 % (M. restricta; [3]) of 7.1 mm.

For C=CC(C)CCCC(C)(C)O (racemic) [(+/−)-2,6-dimethyl-7-octen-2-ol], the zone of inhibition at 0.5 % (M. restricta; [3]) was 7.5 mm.

Work on CC(CC=O)CCc1ccccc1 (racemic) [(+/−)-3-methyl-5-phenylpentanal] yielded a zone of inhibition at 0.5 % (M. restricta; [3]) of 7.6 mm.

CCCCC/C=C\C=C\C(=O)OCC [ethyl (2E,4Z)-2,4-decadienoate] was tested, and the zone of inhibition at 0.5 % (M. restricta; [3]) was 7.4 mm.

In the case of “(+)-(3S)-3-[(1R)-4-methyl-3-cyclohexen-1-yl]butanal + (+)-(3R)-3-[(1R)-4-methyl-3-cyclohexen-1-yl]butanal”, the “Inhibition zone diameter (mm) on M. restricta” value (M. restricta; Table 20, 0.5% in DMSO, 4 days) is reported as 7.3 mm.

C/C(C=O)=C\c1ccccc1 [(2E)-2-methyl-3-phenyl-2-propenal] gave a zone of inhibition at 0.5 % (M. restricta; [3]) of 8.1 mm.

Work on CCCCCCCCC=O [nonanal] yielded a zone of inhibition at 0.5 % (M. restricta; [3]) of 7.3 mm.

CC/C(=C\C[C@H]1CC=C(C)C1(C)C)CO [(−)-(2E)-2-ethyl-4-[(1R)-2,2,3-trimethyl-3-cyclopenten-1-yl]-2-buten-1-ol] gave a zone of inhibition at 0.5 % (M. restricta; [3]) of 7.6 mm.

Work on CCCCCCCCCC(C)C=O (racemic) [(+/−)-2-methylundecanal] yielded a zone of inhibition at 0.5 % (M. restricta; [3]) of 7.1 mm.

CC(=CC=O)CCC(C)=C(C)C [3,6,7-trimethyl-2,6-octadienal] showed a zone of inhibition at 0.5 % (M. restricta; [3]) of 8.7 mm.

Compound CC(C)=CCCC(C)CC=O (racemic) [(+/−)-3,7-dimethyl-6-octenal] has a zone of inhibition at 0.5 % (M. restricta; [3]) of 7.3 mm.

Work on CCCC/C=C\CCO [(Z)-3-octen-1-ol] yielded a zone of inhibition (M. restricta; [2]) of 7.1 mm.

Compound CCCCCCC/C=C\C=O [(Z)-2-decenal] has a zone of inhibition (M. restricta; [2]) greater than 40 mm.

In the case of CC(=O)OCCC1=CCC2CC1C2(C)C (stereo not drawn) [2-(6,6-dimethyl-bicyclo[3.1.1]hept-2-en-2-yl)ethyl acetate], the zone of inhibition at 0.5 % (M. restricta; [3]) is reported as 7.5 mm.

CC/C=C/C=C/C=O [(2E,4E)-2,4-heptadienal] showed a zone of inhibition (M. restricta; [2]) greater than 40 mm.

In the case of CCCCC/C=C/C=C/C=O [(E,E)-2,4-decadienal], the zone of inhibition (M. restricta; [2]) is reported as greater than 40 mm.

For CC(C)(O)Cc1ccc(CCC=O)cc1 [3-[4-(2-hydroxy-2-methylpropyl)phenyl]propanal], the zone of inhibition at 1 % (M. restricta; Malassezia restricta, 96 h, Table 18, 1% in DMSO, M. restricta, 4 days, read-out: Inhibition zone diameter (mm)) was 8.9 mm and the zone of inhibition at 2 % (M. restricta; Malassezia restricta, 96 h, Table 18, 2% in DMSO, M. restricta, 4 days, read-out: Inhibition zone diameter (mm)) was 16 mm.

“(2R)-2-methyl-4-[(1R)-2,2,3-trimethyl-3-cyclopenten-1-yl]-4-pentenal + (2S)-2-methyl-4-[(1R)-2,2,3-trimethyl-3-cyclopenten-1-yl]-4-pentenal” was tested, and the “Inhibition zone diameter (mm) on M. restricta” value (M. restricta; Table 20, 0.5% in DMSO, 4 days) was 7.0 mm.

Compound CC(C)=CCCC(C)CCOCC=O (racemic) [(+/−)-[(3,7-dimethyl-6-octen-1-yl)oxy]acetaldehyde] has a zone of inhibition at 0.5 % (M. restricta; [3]) of 9.7 mm.

CC/C=C/CC/C=C/C=O [(E,E)-2,6-nonadienal] showed a zone of inhibition (M. restricta; [2]) greater than 40 mm.

Work on CC1=C(C=O)C(C)(C)CC=C1 [2,6,6-trimethyl-1,3-cyclohexadiene-1-carbaldehyde] yielded a zone of inhibition at 0.5 % (M. restricta; [3]) of 7.2 mm.

Compound Cc1cc2c(cc1C=O)C(C)(C)[C@H](C)[C@@H](C)C2(C)C (racemic) [(6RS,7RS)-3,5,5,6,7,8,8-heptamethyl-5,6,7,8-tetrahydro-2-naphthalenecarbaldehyde] has a zone of inhibition at 0.5 % (M. restricta; [3]) of 7.8 mm.

Cc1ccc2c(c1)CC(C)(CO)C2 (racemic) [(+/−)-(2,5-dimethyl-2,3-dihydro-1H-inden-2-yl)methanol] was tested, and the zone of inhibition at 0.5 % (M. restricta; [3]) was 7 mm.

CCCCCCO [Mix 1-hexanol, 1-hexanol] was tested, and the zone of inhibition at 1 % [1] was 6.7 mm.

In the case of CCCCC/C=C/C=O [(E)-2-octenal], the zone of inhibition at 0.5 % (M. restricta; [3]) is reported as 24.8 mm.

Work on CC(C)CCCC(C)(C)O [2,6-dimethyl-2-heptanol] yielded a zone of inhibition at 0.5 % (M. restricta; [3]) of 7.7 mm.

CC1=CCC(C/C=C(\C)CO)C1(C)C (racemic) [(+/−)-(2E)-2-methyl-4-(2,2,3-trimethyl-3-cyclopenten-1-yl)-2-buten-1-ol] gave a zone of inhibition at 0.5 % (M. restricta; [3]) of 7.6 mm.

“(+/−)-(4Z)-4,8-dimethyl-4,9-decadienal + (+/−)-(4E)-4,8-dimethyl-4,9-decadienal” was tested, and the “Inhibition zone diameter (mm)” value (M. restricta; Table 19, in DMSO (0.5%, 1% or 2%, not specified per value), M. restricta, 4 days) was 7.3 mm.

With O=C1CCCCCCCCCCCC(=O)OCCO1 [1,4-dioxacycloheptadecane-5, 17-dione] the zone of inhibition at 0.5 % (M. restricta; [3]) was 7.3 mm.

With CC1(C)C2CC=C(CCC=O)C1C2 (stereo not drawn) [3-(6,6-dimethyl-bicyclo[3.1.1]hept-2-en-2-yl)propanal] the zone of inhibition at 0.5 % (M. restricta; [3]) was 7.3 mm.

For Cc1ccc2c(c1)OCC(=O)CO2 [7-methyl-2H-1,5-benzodioxepin-3(4H)-one], the zone of inhibition at 0.5 % (M. restricta; [3]) was 7 mm.

CCCCCC/C=C/C=O [(E)-2-nonenal] showed a zone of inhibition at 0.5 % (M. restricta; [3]) of 38 mm.

With “cis-4-(2-methyl-2-propanyl)cyclohexyl acetate + trans-4-(2-methyl-2-propanyl)cyclohexyl acetate” the “Inhibition zone diameter (mm) on M. restricta” value (M. restricta; Table 20, 0.5% in DMSO, 4 days) was 7.2 mm.

With CCCCCCCCCC/C=C/C=O [(E)-2-tridecenal] the zone of inhibition at 0.5 % (M. restricta; [3]) was 15.2 mm.

Compound CCCCCCCC=C/C=C/C=O [(2E)-2,4-dodecadienal] has a zone of inhibition (M. restricta; [2]) of 21.5 mm.

Work on CCCCCC/C(C=O)=C\c1ccccc1 [(2E)-2-benzylideneoctanal] yielded a zone of inhibition at 0.5 % (M. restricta; [3]) of 7.2 mm.

CC/C=C\CCOC(=O)C(C)C [(Z)-3-hexenyl isobutyrate] gave a zone of inhibition at 0.5 % (M. restricta; [3]) of 7.7 mm.

CCCCCCCC/C=C/C=O [(E)-2-undecenal] showed a zone of inhibition (M. restricta; [2]) greater than 40 mm.

Work on CCCCCCCC=O [octanal] yielded a zone of inhibition at 0.5 % (M. restricta; [3]) of 7.5 mm.

Work on C=C1CCCC(C)(C)C1C(=O)OC (racemic) [(+/−)-methyl 2,2-dimethyl-6-methylidenecyclohexanecarboxylate] yielded a zone of inhibition at 0.5 % (M. restricta; [3]) of 7.5 mm.

For CC(C=O)Cc1ccc2c(c1)OCO2 (racemic) [(+/−)-3-(1,3-benzodioxol-5-yl)-2-methylpropanal], the zone of inhibition at 0.5 % (M. restricta; [3]) was 19 mm.

Work on CCCCCCC=C/C=C/C=O [(2E)-2,4-undecadienal] yielded a zone of inhibition (M. restricta; [2]) of 26.6 mm.

c1ccc(Oc2ccccc2)cc1 [1,1′-oxydibenzene] gave a zone of inhibition at 0.5 % (M. restricta; Malassezia restricta, 96 h, read-out: Inhibition zone diameter (mm) on M. restricta) of 7.4 mm.

CC(C=O)c1ccccc1 (stereo not drawn) [2-phenylpropanal] was tested, and the zone of inhibition at 0.5 % (M. restricta; [3]) was 7 mm.

Compound CC1(C)CCC[C@]2(C)[C@H]3CCO[C@]3(C)CC[C@@H]12 [(−)-(3aR,5aS,9aS,9bR)-3a,6,6,9a-tetramethyldodecahydronaphtho[2,1-b]furan] has a zone of inhibition at 0.5 % (M. restricta; [3]) of 7.7 mm.

With COC(C)(C)C1CC=C(C)CC1 (stereo not drawn) [4-(2-methoxy-2-propanyl)-1-methylcyclohexene] the zone of inhibition at 0.5 % (M. restricta; [3]) was 7 mm.

In the case of CCCCC/C=C\CCC=O [(Z)-4-decenal], the zone of inhibition (M. restricta; [2]) is reported as 7.2 mm.

COc1cc(C=O)ccc1OC(=O)C(C)C [4-formyl-2-methoxyphenyl 2-methylpropanoate] gave a zone of inhibition at 0.5 % (M. restricta; [3]) of 10.2 mm.

In the case of CC(C)=CCC[C@@H](C)CC#N [(−)-(R)-3,7-dimethyl-6-octenenitrile], the zone of inhibition at 0.5 % (M. restricta; [3]) is reported as 7.2 mm.

CCCCCCCCC(C)C=O (racemic) [(+/−)-2-methyldecanal] showed a zone of inhibition at 0.5 % (M. restricta; [3]) of 7.1 mm.
